Results reported in patent US20160331717A1, “CABAZITAXEL AND ITS USE FOR TREATING CANCER” (AVENTIS PHARMA S.A., priority 2015, published 2016).
Like-named read-outs stand apart in the source and are kept apart here.

Legend:
[1] = Pharmacokinetics of cabazitaxel in POP6792 (plasma, LC-MS/MS, Cycle 1); assay type: in vivo, human
Protocol: Total cabazitaxel concentrations in plasma were determined using a validated liquid chromatography with tandem mass spectrometry method (LC-MS/MS) with a lower limit of quantification (LLOQ) of 1 ng/mL.

[2] = tested on: advanced solid tumor patients with varying degrees of hepatic impairment; settings: for maximum tolerated dose (MTD): 1-hour IV infusion every 3 weeks; for death related to study drug: one patient
Protocol: • The primary endpoint was the occurrence of DLTs during Cycle 1. • The secondary endpoints were: • Treatment-emergent adverse events (TEAEs); • Laboratory abnormalities; and, • Pharmacokinetic parameters (Cmax, Ceoi, tmax, tlast, AUClast, AUCO-24, AUCO-72, t1/2z, AUC, CL and Vss). • The effect of the degree of hepatic impairment on cabazitaxel PK parameters was evaluated according to a linear mixed effects model (Log [parameter]=Cohort+Error) with a fixed term for Cohort, fit by estimated generalized least squares (GLS) using SAS PROC MIXED. Estimate and 90% confidence interval (CI) for the geometric mean ratio of each cohort versus Cohort 1 and of Cohorts 3 and 4 versus Cohort 2 were provided for CL, CL/BSA, and exposure parameters (Cmax, AUC, AUClast, AUCO-24 and AUCO-72) normalized to actual cabazitaxel dose in mg/m^2.
• The study was designed as an open-label, dose-escalation, multi-center study of cabazitaxel administered as a 1-hour intravenous (IV) infusion every 3 weeks in cancer patients with varying degrees of hepatic impairment. Patients were enrolled in 4 cohorts based on hepatic function at baseline graded by total bilirubin and aspartate aminotransferase (AST): • Cohort 1: normal hepatic function (total bilirubin supper limit of normal [ULN]; aspartate aminotransferase [AST]≦ULN), • Cohort 2: mild hepatic impairment (total bilirubin >1 to ≦1.5×ULN or AST>1.5×ULN), • Cohort 3: moderate hepatic impairment (total bilirubin >1.5× to ≦3.0×ULN; AST=any), • Cohort 4: severe hepatic impairment (total bilirubin >3.0×-10×ULN; AST=any). • All liver function tests must be completed within 48 hours prior to start of treatment, and reviewed by the investigator or their designee before treatment administration.
Cabazitaxel is administered on Day 1 of each 3-week cycle. Patients received cabazitaxel administered by IV infusion over 1 hour at the dose specified for each cohort. The actual amount of cabazitaxel administered was adjusted at each cycle based on body surface area (BSA) to a maximum BSA of 2.1 m^2 (i.e., patients with a BSA over 2.1 m2 will receive the same amount of cabazitaxel as those with a BSA of 2.1 m).
For Cohorts 2, 3 and 4, dose-escalation was based on dose-limiting toxicities (DLTs) during Cycle 1; real time PK information was used along with safety information. The maximum administered dose (MAD) was to be reached at the dose level when at least 2 patients develop a DLT during Cycle 1. The MTD was defined as the highest dose at which no more than 0 of the first 3 patients, or 1 of 6 patients, experience a DLT during Cycle 1, to a maximum dose of 25 mg/m2. The MTD was one dose level below the MAD.
To be considered a DLT, the clinical adverse event (AE) or laboratory abnormality should be drug-related as assessed by the investigator.
Liver DLTs in patients with hepatic dysfunction (Cohorts 2, 3 and 4) were defined as an increase in total and direct bilirubin and/or transaminase levels to 3 times the baseline value.

[3] = POH0124; CV=38.8%, n=170; cited from earlier work
[4] = Cohort 2, mild hepatic impairment
[5] = Cohort 3 at the MTD, 4/7 patients

Structure (SMILES): CO[C@H]1C(=O)[C@]2(C)[C@@H](OC)C[C@H]3OC[C@@]3(OC(C)=O)[C@H]2[C@H](OC(=O)c2ccccc2)[C@]2(O)C[C@H](OC(=O)[C@H](O)[C@@H](NC(=O)OC(C)(C)C)c3ccccc3)C(C)=C1C2(C)C [cabazitaxel, 4α-acetoxy-2α-benzoyloxy-5β,20-epoxy-1-hydroxy-7, 101-dimethoxy-9-oxo-11-taxen-13α-yl (2R,3S)-3-tert-butoxycarbonyl-amino-2-hydroxy-3-phenylpropionate]
- CL/BSA estimate ([1]; Cohort 1, normal hepatic function, 90% CI: 8.6-20.8): 13.4 L/h/m2
- CL/BSA estimate ([1]; Cohort 2, mild hepatic impairment, 90% CI: 17.6-31.4): 23.5 L/h/m2
- CL/BSA geometric mean ratio ([1]; Cohort 2 versus Cohort 1, 75% increase, 90% CI: 1.04-2.96): 1.75
- mean CL/BSA ([1]; Cohort 3/10 mg/m^2 (aberrant PK behavior, excluded from statistical analysis)): 517 L/h/m2
- CL/BSA geometric mean ratio, sensitivity analysis ([1]; Cohort 3 versus Cohort 2, after exclusion of patients with erratic PK profile, 6% decrease, 90% CI: 0.64-1.38): 0.94
- AUClast/dose geometric mean ratio ([1]; Cohort 3 versus Cohort 2, 14% decrease, 90% CI: 0.50-1.46): 0.86
- CL/BSA geometric mean ratio ([1]; Cohort 3 versus Cohort 2, 19% increase, 90% CI: 0.74-1.91): 1.19
- CL/BSA geometric mean ratio, sensitivity analysis ([1]; Cohort 4 versus Cohort 2, after exclusion of patients with erratic PK profile, 39% decrease, 90% CI: 0.36-1.05): 0.61
- AUClast/dose geometric mean ratio ([1]; Cohort 4 versus Cohort 2, 17% increase, 90% CI: 0.63-2.14): 1.17
- CL/BSA geometric mean ratio ([1]; Cohort 4 versus Cohort 2, 23% decrease, 90% CI: 0.39-1.53): 0.77
- mean CL/BSA, Cohort 3/10 mg/m^2 versus other Cohort 3 patients ([1]; higher): approximately 20 fold
- effect of hepatic impairment on cabazitaxel clearance ([1]; mild or moderate hepatic impairment): no evidence that mild or moderate hepatic impairment results in a substantial decline in cabazitaxel clearance
- CL/BSA estimate ([1]; moderate hepatic impairment): 27.9 L/h/m2
- mean CL/BSA ([1]; other Cohort 3 patients, 15 and 20 mg/m2): 30.5 L/h/m2
- CL/BSA estimate ([1]; severe hepatic impairment): 18.1 L/h/m2
- maximum administered dose (MAD) [2, 4]: 25 mg/m2
- maximum tolerated dose (MTD) [2, 4]: 20 mg/m^2
- death related to study drug ([2]; Cohort 2/20 mg/m^2): died due to Gr 4 Candida sepsis related to study drug
- maximum tolerated dose (MTD) ([2]; Cohort 3, moderate hepatic impairment): 15 mg/m^2
- study drug-related febrile neutropenia, patients ([2]; Cohort 3 at the MTD, 1/7 patients): 14.3%
- study drug-related TEAE diarrhea, patients ([2]; Cohort 3 at the MTD, 3/7 patients): 42.9%
- Gr≧3 on-treatment neutrophil count decreased, patients [2, 5]: 57.1%
- Gr≧3 on-treatment white blood cell count decreased, patients [2, 5]: 57.1%
- death related to study drug ([2]; Cohort 4/20 mg/m^2): died due to a combination of shock, acute renal failure, tumor lysis syndrome (all related to study drug)
- death due to disease progression, patients ([2]; all cohorts, 21/43 patients): 48.8%
- patients who died by the cut-off date ([2]; all cohorts, 23 of 43 patients): 53.5%
- study drug-related TEAE diarrhea, patients ([2]; human, in vivo): 41.7%
- study drug-related TEAE fatigue, patients ([2]; human, in vivo): 83.3%
- study drug-related serious TEAE febrile neutropenia, patients ([2]; human, in vivo): 25.0%
- study drug-related serious TEAE neutropenia (Gr≧3), patients ([2]; human, in vivo): 33.3%
- maximum administered dose (MAD) ([2]; human, in vivo, 3 weeks): 20 mg/m2
- febrile neutropenia ([2]; in vivo): No patient experienced febrile neutropenia
- safety profile at the MTD ([2]; patients with mild or moderate hepatic impairment): generally similar to that observed at 25 mg/m^2 in patients with normal hepatic function
- typical cabazitaxel clearance (CL/BSA) by population PK analysis [3]: 26.4 L/h/m2
